# Measured values taken from patent US12357579B2, “Capsule for treating ulcerative colitis” (KEIO UNIVERSITY, priority 2018, dated 2025).
# Assays:
# mouse model of colitis = conditions: cited from earlier work
# [1] = tested on: colitis model mice (2.0% DSS, C57BL/6J); test: DSS-induced colitis model mice: colitis-suppressing action (body weight, DAI score, colon length); assay type: in vivo; conditions: oral, 7 days; for effect on colitis (overall): indigo amount 0.5 mg/day (equivalent to 25 mg/kg/day)
# Method: As mice used in an animal test, C57BL/6J was started to use after preliminary breeding for 3 days after purchase. First, a 2.0% solution of DSS (dextran sulfate sodium salt, molecular weight 36,000 to 44,000) was given to mice to cause colitis to prepare colitis model mice. The colitis model mice were administered with only sterilized water to obtain control mice. It should be noted that, in order to maintain the colitis state of the mice for 7 days, the 2.0% DDS (dextran sulfate sodium salt) solution was orally administered at the same time as the administration of the sterile water. Five capsules (equivalent to indigo amount of 0.5 mg) and 15 capsules (equivalent to indigo amount of 1.5 mg) both of which were the indigo-containing capsules A were each orally administered to 5 specimens of colitis mice for 7 days. It should be noted that, in order to maintain the colitis state of the mice for 7 days, the 2.0% DDS (dextran sulfate sodium salt) solution was orally administered at the same time when the oral administration of the capsules A. Colitis-suppressing action of indigo was evaluated by a decrease in the endpoints such as body weight (BW), disease activity index (DAI) score (DAI score: a total score (0 to 12) of the number of defecation, bloody stool, mucosal findings, and general endpoints scored 0 to 3 on a 4-point scale), and colon length. […] FIG. 3 is a graph representing results of disease activity index score (DAI score). It should be noted that the DAI score refers to an evaluation index described in the literature “Sutherland L R, Martin F, Greer S, et al: 5-Aminosalicylic acid enema in the treatment of distal colitis, proctosigmoiditis, and proctitis. Gastroenterology 92: 1894-1898, 1987”. FIG. 4 is a graph representing results of measuring colon length. Since the colon length is shortened by causing colitis, the colon length of each mouse group was measured as another index for the evaluation of colitis, and the average value thereof was represented by a histogram.
# [2] = indigo amount 0.5 mg/day, vs control group
structure (smiles),measurement,setting,value
"O=C1/C(=C2\Nc3ccccc3C2=O)Nc2ccccc21 [indigo powder, indigo]",effect in colitis model mice,mouse model of colitis; low dose 60 mg/kg/day of powder,effective
same,therapeutic effect in mouse model of colitis,mouse model of colitis; powder administration,had a therapeutic effect
same,effect on colitis (overall),[1],no effect of indigo was observed
same,effect on colitis (overall),[1]; listed as powder,no effect
same,changes in body weight (BW),[1]; [2],decreasing the body weight was also observed as compared with the control group
same,colon length,[1]; [2],the same as that of the control group
